Test results reported in ChEMBL document CHEMBL4828727, “Antibacterial and antitumoral properties of 1,2,3-triazolo fused triterpenes and their mechanism of inhibiting the proliferation of HL-60 cells” (Eur J Med Chem, 2021).
≈ marks a conversion by molar mass, not a printed value. Calls of active or inactive are those of the source. The rule behind the calls is not given here.

Experiments:
[1] = system: HL-60; assay: Cell cycle arrest in human HL-60 cells assessed as increase in accumulation in G0/G1 phase at 8 uM incubated for 48 hrs by propidium iodide staining based flow cytometric analysis (reference value: 64.97%); type: functional
[2] = system: HL-60; assay: Cell cycle arrest in human HL-60 cells assessed as decrease in accumulation in S phase at 10 uM incubated for 48 hrs by propidium iodide based flow cytometric analysis (reference value: 28.42%); type: functional; set-up: scale not given: the % may be the effect or the level left
[3] = system: CAPAN-1; assay: cells; type: functional, cell-based; conditions: Homo sapiens, CAPAN-1, 72 h
Description: Antiproliferative activity against human CAPAN-1 cells assessed as inhibition of cell viability measured after 72 hrs by colorimetric MTS viability assay

[4] = system: HL-60; assay: Cell cycle arrest in human HL-60 cells assessed as accumulation of cells at G2/M phase at 10 uM incubated for 48 hrs by propidium based flow cytometric analysis (reference value: 6.61%); type: functional
[5] = system: Salmonella enterica subsp. enterica; assay: Antibacterial activity against Salmonella enterica subsp.enterica ATCC13076 assessed as growth inhibition after 20 hrs by broth microdilution method; type: functional
[6] = system: HL-60; assay: Induction of apoptosis in human HL-60 cells assessed as necrotic cells at 6 uM after 48 hrs by Annexin V-PE/7-AAD dual staining based flow cytometry (reference value: 2.64 to 3.64%); type: functional
[7] = system: HL-60; assay: Induction of apoptosis in human HL-60 cells assessed as late apoptotic cells at 6 uM in presence of 3-MA after 48 hrs by Annexin V-PE/7-AAD dual staining based flow cytometry (reference value: 3.12%); type: functional
[8] = system: Rec1; assay: cells; type: functional, cell-based; conditions: Homo sapiens, Rec1, 72 h
Description: Cytotoxicity against human REC1 cells assessed as inhibition of cell viability measured after 72 hrs by real-time IncuCyte proliferation analysis

[9] = system: NCI-H460; assay: cells; type: functional, cell-based; conditions: Homo sapiens, NCI-H460, 72 h
Description: Antiproliferative activity against human NCI-H460 cells assessed as inhibition of cell viability measured after 72 hrs by colorimetric MTS viability assay

[10] = system: HL-60; assay: Induction of autophagy in human HL-60 cells assessed as fold increase in MDC fluorescence intensity at 10 uM measured after 48 hrs by flow cytometry relative to control; type: functional
[11] = system: HL-60; assay: Induction of autophagy in human HL-60 cells assessed as fold increase in MDC fluorescence intensity at 6 uM measured after 48 hrs by flow cytometry relative to control; type: functional
[12] = system: HL-60; assay: cells; type: functional, cell-based; conditions: Homo sapiens, HL-60, 72 h
Description: Antiproliferative activity against human HL-60 cells assessed as inhibition of cell viability measured after 72 hrs by real-time IncuCyte proliferation analysis

[13] = system: HL-60; assay: Induction of mitochondrial membrane potential loss in human HL-60 cells at 6 uM after 48 hrs by JC-1 staining based flow cytometry (reference value: 3.49%); type: functional
[14] = system: HL-60; assay: Induction of apoptosis in human HL-60 cells assessed as necrotic cells at 10 uM after 48 hrs by Annexin V-PE/7-AAD dual staining based flow cytometry (reference value: 2.64 to 3.64%); type: functional
[15] = system: HL-60; assay: Cell cycle arrest in human HL-60 cells assessed as decrease in accumulation in S phase at 6 uM incubated for 48 hrs by propidium iodide staining based flow cytometric analysis (reference value: […]); type: functional; set-up: scale not given: the % may be the effect or the level left
[16] = system: HL-60; assay: Induction of apoptosis in human HL-60 cells assessed as late apoptotic cells at 6 uM after 48 hrs by Annexin V-PE/7-AAD dual staining based flow cytometry (reference value: 3.93%); type: functional
[17] = system: Jurkat; assay: cells; type: functional, cell-based; conditions: Homo sapiens, 72 h
Description: Cytotoxicity against human Jurkat cells assessed as inhibition of cell viability measured after 72 hrs by real-time IncuCyte proliferation analysis

[18] = system: HL-60; assay: Induction of apoptosis in human HL-60 cells assessed as early apoptotic cells at 6 uM after 48 hrs by Annexin V-PE/7-AAD dual staining based flow cytometry (reference value: 1.72 to 3.25%); type: functional
[19] = system: HL-60; assay: Induction of apoptosis in human HL-60 cells assessed as live cells at 6 uM in presence of 3-MA after 48 hrs by Annexin V-PE/7-AAD dual staining based flow cytometry (reference value: 91.1%); type: functional
[20] = system: HL-60; assay: Induction of mitochondrial membrane potential loss in human HL-60 cells at 8 uM after 48 hrs by JC-1 staining based flow cytometry (reference value: 3.49%); type: functional
[21] = system: Staphylococcus aureus; assay: Antibacterial activity against Staphylococcus aureus ATCC65385 assessed as growth inhibition after 20 hrs by broth microdilution method; type: functional
[22] = system: HL-60; assay: Induction of apoptosis in human HL-60 cells assessed as necrotic cells at 10 uM in presence of 3-MA after 48 hrs by Annexin V-PE/7-AAD dual staining based flow cytometry (reference value: 2.62%); type: functional
[23] = system: Z-138; assay: cells; type: functional, cell-based; conditions: Homo sapiens, Z-138, 72 h
Description: Antiproliferative activity against human Z138 cells assessed as inhibition of cell viability measured after 72 hrs by real-time IncuCyte proliferation analysis

[24] = system: HL-60; assay: Induction of apoptosis in human HL-60 cells assessed as live cells at 10 uM in presence of 3-MA after 48 hrs by Annexin V-PE/7-AAD dual staining based flow cytometry (reference value: 91.1%); type: functional
[25] = Antiproliferative activity against human HAP1 cells assessed as inhibition of cell viability measured after 72 hrs by colorimetric MTS viability assay; type: functional, cell-based; conditions: HAP1, 72 h
[26] = system: HL-60; assay: Induction of apoptosis in human HL-60 cells assessed as early apoptotic cells at 10 uM in presence of 3-MA after 48 hrs by Annexin V-PE/7-AAD dual staining based flow cytometry (reference value: 3.14%); type: functional
[27] = system: HL-60; assay: Induction of apoptosis in human HL-60 cells assessed as early apoptotic cells at 8 uM after 48hrs by Annexin V-PE/7-AAD dual staining based flow cytometry (reference value: 1.72 to 3.25%); type: functional
[28] = system: Listeria innocua; assay: Antibacterial activity against Listeria innocua LMG11387 assessed as growth inhibition after 20 hrs by broth microdilution method; type: functional
[29] = system: HL-60; assay: Induction of apoptosis in human HL-60 cells assessed as necrotic cells at 8 uM after 48 hrs by Annexin V-PE and 7AAD based flow cytometry (reference value: 2.64 to 3.64%); type: functional
[30] = system: HL-60; assay: Cell cycle arrest in human HL-60 cells assessed as increase in accumulation in G0/G1 phase at 6 uM incubated for 48 hrs by propidium iodide staining based flow cytometric analysis (reference value: 64.97%); type: functional
[31] = system: HL-60; assay: Induction of apoptosis in human HL-60 cells assessed as necrotic cells at 6 uM in presence of 3-MA after 48 hrs by Annexin V-PE/7-AAD dual staining based flow cytometry (reference value: 2.62%); type: functional
[32] = system: HL-60; assay: Induction of apoptosis in human HL-60 cells assessed as live cells at 8 uM in presence of 3-MA after 48 hrs by Annexin V-PE/7-AAD dual staining based flow cytometry (reference value: 91.1%); type: functional
[33] = system: HL-60; assay: Induction of apoptosis in human HL-60 cells assessed as early apoptotic cells at 10 uM after 48 hrs by Annexin V-PE/7-AAD dual staining based flow cytometry (reference value: 1.72 to 3.25%); type: functional
[34] = system: LN-229; assay: Antiproliferative activity against human LN-229 cells assessed as inhibition of cell viability measured after 72 hrs by colorimetric MTS viability assay; type: functional, cell-based; conditions: LN-229, 72 h
[35] = system: HL-60; assay: Induction of apoptosis in human HL-60 cells assessed as late apoptotic cells at 10 uM in presence of 3-MA after 48 hrs by Annexin V-PE/7-AAD dual staining based flow cytometry (reference value: 3.12%); type: functional
[36] = system: HL-60; assay: Induction of autophagy in human HL-60 cells assessed as fold increase in MDC fluorescence intensity at 8 uM measured after 48 hrs by flow cytometry relative to control; type: functional

COc1ccc2[nH]cc(CCn3nnc4c3C(C)(C)[C@@H]3CC[C@]5(C)[C@H](CC=C6[C@@H]7CC(C)(C)CC[C@]7(C(=O)O)CC[C@]65C)[C@@]3(C)C4)c2c1
Activity [1]: 73.3% | Activity [2]: 11.39% | IC50 [3]: 8.1 µM | Activity [4]: 3.16% | MIC50 [5]: inactive | Activity [6]: 0.501% | Activity [7]: 13.7% | IC50 [8]: 6.2 µM | IC50 [9]: 12.5 µM | fold change (FC) [10]: 2 | fold change (FC) [11]: 1.49 | IC50 [12]: 1.3 µM | Activity [13]: 7.86% | Activity [14]: 0.628% | Activity [15]: 24.83% | Activity [16]: 6.26% | IC50 [17]: 8.7 µM | Activity [18]: 3.06% | Activity [19]: 82.1% | Activity [20]: 33.9% | MIC50 [21]: 32.3 µg/mL (≈ 49.5 µM) | Activity [22]: 0.317% | IC50 [23]: 11.3 µM | Activity [24]: 54.2% | IC50 [25]: 4.1 µM | Activity [26]: 14.7% | Activity [27]: 4.97% | MIC50 [28]: 103 µg/mL (≈ 158 µM) | Activity [29]: 0.415% | Activity [30]: 67.5% | Activity [31]: 0.358% | Activity [32]: 68.9% | Activity [33]: 8.13% | IC50 [34]: 44.1 µM | Activity [35]: 30.8% | fold change (FC) [36]: 1.72
